Key:
MCF7 cells = experiment: clonogenic survival with 2 Gy IR, DNA repair inhibitors; assay type: cell-based, Human; details: 1 h before and 24 h after IR
Method: Cells were washed in phosphate-buffered saline (PBS), trypsinized and counted. Cells were then reseeded at a known density in drug-free medium into 10 cm dishes (100 - 10 000 cells/dish) and incubated for 8-21 days. Colonies were fixed using Carnoys fixture (75% v/v methanol, 25% v/v acetic acid, Fisher), stained with crystal violet (0.4% w/v in water), and counted using a ColCount automated colony counter (Oxford Optronics). Cell survival was calculated as a percentage of the untreated control.
Alternatively, exponentially growing MCF7 cells were exposed to a range of concentrations of the PARP inhibitor rucaparib, the ATM inhibitor KU55933, the ATR inhibitor VE-821 or NU5455 for 1 hour prior to irradiation with 2 Gy. Cells were then incubated in the continued presence of the DNA repair inhibitors for a further 24 hours prior to replating. […]

[1] = system: skin immediately surrounding the tumor; experiment: γH2AX foci in skin surrounding subcutaneous Calu-6 tumor; assay type: in vivo, mouse; details: 5 hours after 3.3 Gy, 30 mg/kg oral, P = 0.09
Method: Subcutaneous non–small cell lung cancer xenografts were generated in CD-1 nude or BALB/c nude mice using A549 and Calu-6 cells, respectively, as previously described ([53]). When tumors reached 100 mm^3, mice were randomized into 4 groups (n = 7–9 per group) to receive (a) vehicle (orally) 30 minutes before mock radiation, (b) NU5455 (30 mg/kg orally) 30 minutes before mock radiation, (c) targeted tumor radiation at a single dose of 3.3 or 10 Gy, or (d) NU5455 (30 mg/kg orally) 30 minutes before 3.3 Gy or 10 Gy targeted tumor radiation. […]
NSCLC subcutaneous xenografts were generated as previously described ( 53). […] Mouse weights and tumor volumes (1/2 x length x width x depth) were measured three times a week.
Targeted radiotherapy in subcutaneous and orthotopic NSCLC xenograft models When subcutaneous xenografts reached 100 mm3, mice were randomized into four groups (n = 7 - 11/group): (i) N-Methyl-2-pyrrolidone (NMP): 30% Encapsin : PEG400 (1:6:3 v/v/v) vehicle p.o. 30 minutes prior to mock radiation. […] The remaining mice were monitored for tumor growth until the sizes of tumo rs reached 400 mm 3 or up to 38 days after initiation of […]
Tissues were fixed in 4% paraformaldehyde (PFA) and paraffin -embedded. […] The percentage of γH2AX and 53BP1 positive nuclei in lung epithelial cells was quantified manually in normal lung samples across 5 randomly-chosen fields of view per […]

`CN(C(=O)CN1CCOCC1)c1ccc2sc3c(-c4cccc5c(=O)cc(N6CC7CCC(C6)O7)oc45)cccc3c2c1` [NU5455] was tested, and the “SER (sensitization enhancement ratio), enhancement of 2 Gy IR clonogenic cell killing” value (MCF7 cells; at 1 μM) was 11.5 fold, the “SER (sensitization enhancement ratio), enhancement of 2 Gy IR clonogenic cell killing” value (MCF7 cells; at 3 μM) was 38 fold and the “radiation-induced γH2AX foci, fold augmented with NU5455” value [1] was 1.6 fold.

From paper PMC6934184, “Selective DNA-PKcs inhibition extends the therapeutic index of localized radiotherapy and chemotherapy” (The Journal of Clinical Investigation, 2019)
